Residues, ends and D or L forms follow the SMILES beside them. *: point of attachment. Cbz = O=C(OCc1ccccc1)*; CH2F = FC*
Columns and labels:
[1] = target: T1, ICE (caspase-1) (Mus musculus, UniProt P29452)
T1 sequence (P29452 119-296 limits assumed): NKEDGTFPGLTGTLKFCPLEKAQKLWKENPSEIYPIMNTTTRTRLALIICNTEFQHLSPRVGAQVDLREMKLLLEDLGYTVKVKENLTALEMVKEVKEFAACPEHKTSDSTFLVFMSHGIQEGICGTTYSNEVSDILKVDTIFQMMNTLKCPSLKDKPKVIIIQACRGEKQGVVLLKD
T1 sequence (P29452 315-402 limits assumed): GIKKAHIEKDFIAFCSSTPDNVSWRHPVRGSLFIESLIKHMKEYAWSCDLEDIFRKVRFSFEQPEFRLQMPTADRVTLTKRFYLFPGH

[2] = tested on: RAW 264.7 murine macrophage cell line; format: cell-based; settings: 24 h

Row | Compound | Effect on cell viability [1] | Blocking of IL-1β production induced by anthrax LT ([1]; 24 hours) | Blocking of IL-18 production induced by anthrax LT ([1]; 24 hours) | Dose needed for induction of IL-1β comparable to that resulting from anthrax LT treatment [2] | Induction of IL-18 [2]
1 | COC(=O)CC[C@H](NC(=O)[C@H](Cc1c[nH]c2ccccc12)NC(=O)OCc1ccccc1)C(=O)N[C@@H](Cc1cnc[nH]1)C(=O)N[C@@H](CC(=O)OC)C(=O)CF [Z-WEHD-FMK] (Cbz-WE(OMe)HD(OMe)-CH2F) | no observable effect | ~70% | ~70% |  | 
2 | lipopolysaccharide [LPS] |  |  |  | ≥ 100 EU/ml | not induced

Reference: patent US7871790B2 (priority 2004, dated 2011)
